Source: ChEMBL document CHEMBL1135845, “N-(arylacetyl)-biphenylalanines as potent VLA-4 antagonists” (Bioorg Med Chem Lett, 2002)
Values belong to the compound of their own block, whether it stands above or below them.

Tests used:
[1] = Inhibition of VLA-4 binding to radiolabeled vascular cell adhesion molecule-1 (VCAM-1) Ig fusion protein in human Jurkat cells; assay type: cell-based
[2] = biological target: T1, Integrin alpha-4/beta-7 (Homo sapiens, UniProt P13612+P26010); assay: Inhibition of alpha4-beta7 integrin binding to radiolabeled vascular cell adhesion molecule-1 (VCAM-1) Ig fusion protein in human Jurkat cells; assay type: cell-based
T1 sequence (P13612 whole entry): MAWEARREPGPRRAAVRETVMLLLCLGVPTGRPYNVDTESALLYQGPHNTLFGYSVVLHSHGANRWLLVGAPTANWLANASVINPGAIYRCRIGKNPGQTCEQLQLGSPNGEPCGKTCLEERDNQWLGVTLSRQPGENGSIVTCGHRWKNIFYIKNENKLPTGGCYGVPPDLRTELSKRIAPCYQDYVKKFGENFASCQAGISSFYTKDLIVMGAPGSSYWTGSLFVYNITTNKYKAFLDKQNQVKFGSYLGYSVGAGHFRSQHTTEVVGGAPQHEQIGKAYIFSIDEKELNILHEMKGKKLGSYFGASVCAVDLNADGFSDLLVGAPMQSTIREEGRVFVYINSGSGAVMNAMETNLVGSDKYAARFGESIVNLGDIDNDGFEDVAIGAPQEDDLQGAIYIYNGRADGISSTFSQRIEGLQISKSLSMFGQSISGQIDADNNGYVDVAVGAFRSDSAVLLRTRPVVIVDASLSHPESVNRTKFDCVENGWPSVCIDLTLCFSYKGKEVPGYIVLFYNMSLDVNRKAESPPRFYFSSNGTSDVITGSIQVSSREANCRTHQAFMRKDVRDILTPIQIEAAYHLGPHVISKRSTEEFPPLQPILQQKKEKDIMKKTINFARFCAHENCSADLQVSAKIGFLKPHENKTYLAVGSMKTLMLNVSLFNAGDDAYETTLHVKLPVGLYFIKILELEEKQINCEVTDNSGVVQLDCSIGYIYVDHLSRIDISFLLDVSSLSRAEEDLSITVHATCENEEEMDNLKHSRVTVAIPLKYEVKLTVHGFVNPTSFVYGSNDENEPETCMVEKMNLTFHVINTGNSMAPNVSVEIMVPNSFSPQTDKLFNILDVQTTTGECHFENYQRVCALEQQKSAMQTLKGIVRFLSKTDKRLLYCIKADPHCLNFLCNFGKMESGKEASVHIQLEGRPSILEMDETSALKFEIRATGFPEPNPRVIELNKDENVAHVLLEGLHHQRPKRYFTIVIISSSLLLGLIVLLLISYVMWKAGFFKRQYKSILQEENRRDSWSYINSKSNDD
T1 sequence (P26010 whole entry): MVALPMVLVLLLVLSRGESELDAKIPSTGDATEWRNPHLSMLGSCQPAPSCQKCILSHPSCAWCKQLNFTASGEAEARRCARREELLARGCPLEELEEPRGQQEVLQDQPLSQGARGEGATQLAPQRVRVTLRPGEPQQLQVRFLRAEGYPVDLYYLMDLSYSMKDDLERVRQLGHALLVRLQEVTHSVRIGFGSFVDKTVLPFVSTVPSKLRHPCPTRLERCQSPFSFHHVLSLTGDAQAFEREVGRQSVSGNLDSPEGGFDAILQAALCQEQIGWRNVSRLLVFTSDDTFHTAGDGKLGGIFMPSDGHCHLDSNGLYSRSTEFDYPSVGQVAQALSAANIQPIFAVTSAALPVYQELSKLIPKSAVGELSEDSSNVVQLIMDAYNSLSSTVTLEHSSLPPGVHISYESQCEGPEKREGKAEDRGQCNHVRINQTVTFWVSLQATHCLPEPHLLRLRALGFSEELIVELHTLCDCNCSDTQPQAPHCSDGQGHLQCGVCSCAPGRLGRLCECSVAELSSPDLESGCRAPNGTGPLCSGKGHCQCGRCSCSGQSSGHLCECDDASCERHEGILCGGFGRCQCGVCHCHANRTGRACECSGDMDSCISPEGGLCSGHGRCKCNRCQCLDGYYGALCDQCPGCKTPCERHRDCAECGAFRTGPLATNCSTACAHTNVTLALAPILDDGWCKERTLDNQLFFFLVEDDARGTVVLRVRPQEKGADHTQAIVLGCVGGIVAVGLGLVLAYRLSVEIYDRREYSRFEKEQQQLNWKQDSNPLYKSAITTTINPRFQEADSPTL

[3] = Bioavailability in rat (Sprague-Dawley) (dose 1 mg/kg i.v. and 2 mg/kg p.o.); assay type: ADME, organism-based; details: in vivo, po
[4] = Plasma half-life was determined in Sprague-Dawley rats after 0-8 h administration of the compound; assay type: ADME, organism-based; details: rat
[5] = Plasma clearance rate in Sprague-Dawley rats; assay type: ADME, organism-based; details: rat, read-out: Clp

Structure (SMILES): COc1ccccc1-c1ccc(C[C@H](NC(C)=O)C(=O)O)cc1
IC50 [1]: 262 nM

Structure (SMILES): COc1ccccc1-c1ccc(C[C@H](NC(=O)Cc2cccc(C)c2)C(=O)O)cc1
IC50 [1]: 30.9 nM

Structure (SMILES): COc1ccccc1-c1ccc(C[C@H](NC(=O)Cc2cccc([N+](=O)[O-])c2)C(=O)O)cc1
IC50 [1]: 64.9 nM

Structure (SMILES): COc1ccccc1-c1ccc(C[C@H](NC(=O)Cc2ccccc2Cl)C(=O)O)cc1
IC50 [1]: 36.8 nM

Structure (SMILES): COc1ccccc1-c1ccc(C[C@H](NC(=O)C2(c3cccnc3)CCNCC2)C(=O)O)cc1
IC50 [1]: 5.1 nM | IC50 [2]: 83 nM

Structure (SMILES): COc1ccccc1-c1ccc(C[C@H](NC(=O)Cc2ccccn2)C(=O)O)cc1
IC50 [1]: 15.8 nM

Structure (SMILES): COc1ccccc1-c1ccc(C[C@H](NC(=O)C2(c3ccccc3)CC2)C(=O)O)cc1
IC50 [1]: 90.7 nM

Structure (SMILES): COc1ccccc1-c1ccc(C[C@H](NC(=O)Cc2cccc3ccccc23)C(=O)O)cc1
IC50 [1]: 145 nM

Structure (SMILES): COc1ccccc1-c1ccc(C[C@H](NC(=O)C2(c3cccnc3)CCN(C)CC2)C(=O)O)cc1
IC50 [1]: 1 nM | IC50 [2]: 51 nM

Structure (SMILES): COc1ccccc1-c1ccc(C[C@H](NC(=O)Cc2ccc(-c3ccccc3)cc2)C(=O)O)cc1
IC50 [1]: 607 nM

Structure (SMILES): COc1ccccc1-c1ccc(C[C@H](NC(=O)Cc2ccc(Cl)cc2)C(=O)O)cc1
IC50 [1]: 315 nM

Structure (SMILES): COc1ccccc1-c1ccc(C[C@H](NC(=O)Cc2cccc(Cl)c2)C(=O)O)cc1
IC50 [1]: 328 nM

Structure (SMILES): COc1ccccc1-c1ccc(C[C@H](NC(=O)Cc2ccc3ccccc3c2)C(=O)O)cc1
IC50 [1]: 801 nM

Structure (SMILES): COc1ccccc1-c1ccc(C[C@H](NC(=O)C(C)(C)c2ccccc2)C(=O)O)cc1
bioavailability [3]: 94% | IC50 [1]: 14.1 nM | half-life [4]: 120 min | clearance [5]: 7.5 mL/min/kg

Structure (SMILES): COc1ccccc1-c1ccc(C[C@H](NC(=O)Cn2cnnn2)C(=O)O)cc1
IC50 [1]: 14.4 nM

Structure (SMILES): COc1ccccc1-c1ccc(C[C@H](NC(=O)Cc2ccccc2)C(=O)O)cc1
IC50 [1]: 264 nM

Structure (SMILES): COc1ccccc1-c1ccc(C[C@H](NC(=O)Cc2ccc([N+](=O)[O-])cc2)C(=O)O)cc1
IC50 [1]: 44.9 nM

Structure (SMILES): COc1ccccc1-c1ccc(C[C@H](NC(=O)Cc2cccc(F)c2)C(=O)O)cc1
IC50 [1]: 246 nM

Structure (SMILES): COc1ccccc1-c1ccc(C[C@H](NC(=O)Cc2ccc(Cl)cc2Cl)C(=O)O)cc1
IC50 [1]: 16.6 nM

Structure (SMILES): COc1ccccc1-c1ccc(C[C@H](NC(=O)Cc2ccc(F)cc2)C(=O)O)cc1
IC50 [1]: 129 nM

Continued by falling IC50 [1], values first:

IC50 [1]: 12.9 nM
Structure (SMILES): COc1ccccc1-c1ccc(C[C@H](NC(=O)Cc2cccnc2)C(=O)O)cc1

IC50 [1]: 12.2 nM
Structure (SMILES): COc1ccccc1-c1ccc(C[C@H](NC(=O)Cc2ccncc2)C(=O)O)cc1

IC50 [1]: 9.8 nM | IC50 [2]: 120 nM
Structure (SMILES): COc1ccccc1-c1ccc(C[C@H](NC(=O)C2(c3cncc4ccccc34)CCCC2)C(=O)O)cc1

IC50 [1]: 8 nM
Structure (SMILES): COc1ccccc1-c1ccc(C[C@H](NC(=O)Cc2c(Cl)cccc2Cl)C(=O)O)cc1

IC50 [1]: 7.1 nM
Structure (SMILES): COc1ccccc1-c1ccc(C[C@H](NC(=O)C(OC)c2ccccc2)C(=O)O)cc1 (some centres undefined)

IC50 [1]: 6.5 nM
Structure (SMILES): COc1ccccc1-c1ccc(C[C@H](NC(=O)C2(c3ccccc3)CCCCC2)C(=O)O)cc1

IC50 [1]: 6.15 nM
Structure (SMILES): COc1ccccc1-c1ccc(C[C@H](NC(=O)Cn2cnc(Cl)c2Cl)C(=O)O)cc1

IC50 [1]: 4.8 nM
Structure (SMILES): COc1ccccc1-c1ccc(C[C@H](NC(=O)Cc2ccccc2[N+](=O)[O-])C(=O)O)cc1

IC50 [1]: 3.9 nM | IC50 [2]: 98 nM
Structure (SMILES): COc1ccccc1-c1ccc(C[C@H](NC(=O)C2(c3cnc4ccccc4c3)CCCC2)C(=O)O)cc1

bioavailability [3]: 55% | IC50 [1]: 3.2 nM | half-life [4]: 60 min | clearance [5]: 21.5 mL/min/kg | IC50 [2]: 110 nM
Structure (SMILES): COc1ccccc1-c1ccc(C[C@H](NC(=O)C2(c3ccccc3)CCCC2)C(=O)O)cc1

IC50 [1]: 3.2 nM | IC50 [2]: 180 nM
Structure (SMILES): COc1ccccc1-c1ccc(C[C@H](NC(=O)C2(c3ccc[n+]([O-])c3)CCCC2)C(=O)O)cc1

bioavailability [3]: < 1% | IC50 [1]: 3 nM | clearance [5]: > 100 mL/min/kg | IC50 [2]: 215 nM
Structure (SMILES): COc1ccccc1-c1ccc(C[C@H](NC(=O)C2(c3ccccn3)CCCC2)C(=O)O)cc1

IC50 [1]: 2.1 nM | IC50 [2]: 18 nM
Structure (SMILES): COc1ccccc1-c1ccc(C[C@H](NC(=O)C2(c3ccc(=O)n(C)c3)CCCC2)C(=O)O)cc1

IC50 [1]: 1.6 nM | IC50 [2]: 165 nM
Structure (SMILES): COc1ccccc1-c1ccc(C[C@H](NC(=O)C2(c3cncc(Br)c3)CCCC2)C(=O)O)cc1

bioavailability [3]: 11% | IC50 [1]: 1.5 nM | half-life [4]: 36 min | clearance [5]: > 100 mL/min/kg | IC50 [2]: 44 nM
Structure (SMILES): COc1ccccc1-c1ccc(C[C@H](NC(=O)C2(c3cccnc3C)CCCC2)C(=O)O)cc1

bioavailability [3]: 1% | IC50 [1]: 1.4 nM | clearance [5]: > 100 mL/min/kg | IC50 [2]: 26 nM
Structure (SMILES): COc1ccccc1-c1ccc(C[C@H](NC(=O)C2(c3ccc(O)nc3)CCCC2)C(=O)O)cc1

bioavailability [3]: 6% | IC50 [1]: 1.4 nM | half-life [4]: 24 min | clearance [5]: 82 mL/min/kg | IC50 [2]: 158 nM
Structure (SMILES): COc1ccccc1-c1ccc(C[C@H](NC(=O)C2(c3cccnc3)CCCCC2)C(=O)O)cc1

bioavailability [3]: 12% | IC50 [1]: 1.3 nM | half-life [4]: 18 min | clearance [5]: > 100 mL/min/kg | IC50 [2]: 36.3 nM
Structure (SMILES): COc1ccccc1-c1ccc(C[C@H](NC(=O)C2(c3ccc(C)nc3)CCCC2)C(=O)O)cc1

bioavailability [3]: 1% | IC50 [1]: 1.2 nM | half-life [4]: 12 min | clearance [5]: > 100 mL/min/kg | IC50 [2]: 22 nM
Structure (SMILES): COc1ccccc1-c1ccc(C[C@H](NC(=O)C2(c3cnccc3C)CCCC2)C(=O)O)cc1

IC50 [1]: 0.9 nM | IC50 [2]: 16.7 nM
Structure (SMILES): COc1ccccc1-c1ccc(C[C@H](NC(=O)C2(c3cccnc3)CC=CC2)C(=O)O)cc1

IC50 [1]: 0.8 nM | IC50 [2]: 15 nM
Structure (SMILES): COc1cc(C2(C(=O)N[C@@H](Cc3ccc(-c4ccccc4OC)cc3)C(=O)O)CCCC2)ccn1

IC50 [1]: 0.7 nM | IC50 [2]: 30 nM
Structure (SMILES): COc1ccccc1-c1ccc(C[C@H](NC(=O)C2(c3cccnc3)CCN(C(C)=O)CC2)C(=O)O)cc1

bioavailability [3]: 17% | IC50 [1]: 0.7 nM | half-life [4]: 150 min | clearance [5]: > 100 mL/min/kg | IC50 [2]: 49 nM
Structure (SMILES): COc1ccccc1-c1ccc(C[C@H](NC(=O)C2(c3ccncc3)CCCC2)C(=O)O)cc1

IC50 [1]: 0.7 nM | IC50 [2]: 94 nM
Structure (SMILES): COc1ccccc1-c1ccc(C[C@H](NC(=O)C2(c3cccnc3)CCC(C)C2)C(=O)O)cc1 (mixture of isomers)

bioavailability [3]: 35% | IC50 [1]: 0.5 nM | half-life [4]: 66 min | clearance [5]: 24 mL/min/kg | IC50 [2]: 9.9 nM
Structure (SMILES): COc1ccccc1-c1ccc(C[C@H](NC(=O)C2(c3cccnc3)CCCC2)C(=O)O)cc1

bioavailability [3]: < 1% | IC50 [1]: 0.5 nM | clearance [5]: > 100 mL/min/kg | IC50 [2]: 94 nM
Structure (SMILES): COc1ccccc1-c1ccc(C[C@H](NC(=O)C2(c3cccnc3)CCOCC2)C(=O)O)cc1

IC50 [1]: 0.5 nM | IC50 [2]: 33 nM
Structure (SMILES): COc1ccccc1-c1ccc(C[C@H](NC(=O)C2(c3ccnnc3)CCCC2)C(=O)O)cc1
